# From patent US20250312309A1, “ALLYL-AND PROPARGYLAMINE-TYPE PHENE[…] T[…] TREATING MEDICAL DISORDERS” (Mind Medicine, Inc., priority 2023, published 2025)
# Entries after “also recorded” stand apart in the source; their conditions may differ. Counter-ions that a name gives are not always drawn. Like-named read-outs stand apart in the source and are kept apart here.
# Key:
# [1] = target: T1, human serotonin (5-HT) transporter (hSERT) (Homo sapiens, UniProt P31645); assay: Serotonin uptake transport inhibition ([3H]5-HT uptake in hSERT-transfected HEK 293 cells); assay type: cell-based; settings: screening at 1 μM and 10 μM (n=3), FIG. 9
# T1 construct: expressed in transfected cells; host or cells: HEK 293 cells (Invitrogen), stably transfected
# Experimental: Serotonin uptake transport inhibition. […] Briefly, cells were cultured in Dulbecco's modified Eagle's medium (DMEM; Gibco, Life Technologies, Zug, Switzerland) with 10% fetal bovine serum (Gibco) and 250 mg/mL Geneticin (Gibco) to 70-90% confluence, detached, and then resuspended (3×10^6 cells/mL) in Krebs-Ringer Bicarbonate Buffer (Sigma-Aldrich, Buchs, Switzerland). The cell suspension (100 μL) was incubated with 25 μL buffer containing the test compounds, vehicle control, or 10 μM fluoxetine (SERT-specific inhibitor) for 10 minutes in a round bottom 96-well plate at room temperature by shaking at 450 rotations per minute on a rotary shaker. To initiate uptake transport, 50 μL of [^3H] […] Thereafter, 100 μL of the cell suspension was transferred into 500 μL microcentrifuge tubes that contained 50 μL of 3 M KOH and 200 μL silicon oil (1:1 mixture of silicon oil types AR 20 and AR 200; Sigma-Aldrich). The tubes were centrifuged for 3 minutes at 16,550 g to transport the cells through the silicone oil into the KOH. The tubes were frozen in liquid nitrogen and the cell pellet was then cut into 6 mL scintillation vials (PerkinElmer, Schwerzenbach, Switzerland) that contained 0.5 mL lysis buffer (0.05 M TRIS-HCl, 50 mM NaCl, 5 mM EDTA, and 1% NP-40 in water). The samples were shaken for 1 hour before the addition of 5 mL scintillation liquid (Ultimagold, Perkin Elmer). Serotonin uptake was quantified by liquid scintillation counting on a Packard Tri-Carb Liquid Scintillation Counter 1900 TR. Non-specific uptake in the presence of fluoxetine was subtracted from the total counts.
# human 5-HT2A receptor = target: T2, human 5-HT2A receptor (Homo sapiens, UniProt P28223); assay: 5-HT2A receptor activation assessment (IP1 accumulation, NIH/3T3 cells); assay type: cell-based; settings: for 5-HT2A receptor activation, result in words: FIG. 10 / FIG. 11
# T2 construct: expressed in transfected cells; host or cells: NIH/3T3 cells stably expressing the receptor
# Experimental: 5-HT2A receptor activation assessment. Activation of the 5-HT2A receptor was assessed by measuring the accumulation of inositol monophosphate 1 (IP1) using the Cisbio IP-One Gq Kit (Cisbio Bioassays SAS, Codolet Cedex, France) according to the manufacturer's protocol. In brief, NIH/3T3 cells stably expressing the human 5-HT2A receptor were seeded at a density of 2,500 cells per well in a 384-well plate in Opti-MEM™ I medium (Gibco, ThermoFisher, Life Technologies Europe B.V., Zug, Switzerland). Then, test compounds were added, and the plate was incubated for 90 minutes at 37° C., followed by 60 minutes incubation with Anti-IP1-Cryptate and IP1-d2 at room temperature. Stimulated IP-1 formation was determined by Homogeneous Time-Resolved Fluorescence (HTRF) measurement on a BioTek Synergy H1 Multimode Reader (Agilent Technologies (Schweiz) AG, Basel, Switzerland) and EC50 values were derived from the concentration-response curves using nonlinear regression.
# [2] = target: T1, human serotonin (5-HT) transporter (hSERT); settings: read-out: IC50, SERT inhibition (Simmler et al., 2013); literature value in this assay; cited from earlier work
# [3] = humans; Trachsel et al., 2013; cited from earlier work
# [4] = NIH/3T3 cells expressing human 5-HT2A, FIG. 11, read-out: EC50, 5-HT2A receptor activation (IP1 formation)
# [5] = values for hydrochloride salts, read-out: IC50 values at the 5-HT2A receptor
# T1 sequence (P31645 whole entry): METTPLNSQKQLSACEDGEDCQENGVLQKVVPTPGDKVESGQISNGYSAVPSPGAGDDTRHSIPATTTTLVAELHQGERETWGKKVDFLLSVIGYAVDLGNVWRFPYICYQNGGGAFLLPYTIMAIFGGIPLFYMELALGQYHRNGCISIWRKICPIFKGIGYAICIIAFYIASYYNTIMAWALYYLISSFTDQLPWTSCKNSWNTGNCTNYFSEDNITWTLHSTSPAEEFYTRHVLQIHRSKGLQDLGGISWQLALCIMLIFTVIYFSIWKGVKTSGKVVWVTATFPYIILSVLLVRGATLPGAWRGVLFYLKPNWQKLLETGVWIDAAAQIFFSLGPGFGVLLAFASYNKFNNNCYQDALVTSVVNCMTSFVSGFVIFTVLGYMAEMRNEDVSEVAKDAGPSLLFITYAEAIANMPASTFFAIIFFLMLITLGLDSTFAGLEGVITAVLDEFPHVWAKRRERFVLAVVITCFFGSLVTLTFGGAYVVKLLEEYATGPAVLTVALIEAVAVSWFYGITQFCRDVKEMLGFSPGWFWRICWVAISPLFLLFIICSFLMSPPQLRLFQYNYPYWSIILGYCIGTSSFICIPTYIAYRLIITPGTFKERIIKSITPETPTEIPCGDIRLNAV
# T2 sequence (P28223 whole entry): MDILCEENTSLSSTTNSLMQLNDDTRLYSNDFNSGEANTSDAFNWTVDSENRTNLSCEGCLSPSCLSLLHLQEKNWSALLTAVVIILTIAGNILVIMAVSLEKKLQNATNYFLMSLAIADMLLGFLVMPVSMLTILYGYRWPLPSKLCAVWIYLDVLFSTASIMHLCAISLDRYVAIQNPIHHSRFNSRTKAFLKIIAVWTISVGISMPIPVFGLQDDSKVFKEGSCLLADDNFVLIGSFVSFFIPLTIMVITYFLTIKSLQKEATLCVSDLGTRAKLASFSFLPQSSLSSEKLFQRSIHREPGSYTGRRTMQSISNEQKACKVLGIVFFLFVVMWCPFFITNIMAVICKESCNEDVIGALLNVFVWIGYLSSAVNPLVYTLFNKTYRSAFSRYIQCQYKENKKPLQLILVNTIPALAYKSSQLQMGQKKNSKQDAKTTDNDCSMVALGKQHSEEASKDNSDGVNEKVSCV
molecule,measurement,setting,value
"C=CC(N)Cc1ccc2c(c1)OCO2.Cl (stereo not shown) [DH-BDB, 1-(1,3-Benzodioxol-5-yl) but-3-en-2-amine hydrochloride]",IC50,[1],1 to 10 µM
same,"5-HT2A receptor activation, result in words",human 5-HT2A receptor,weaker activation efficacy
"CNC(C)Cc1ccc2c(c1)OCO2 (stereo not shown) [MDMA, 3,4-Methylenedioxymethamphetamine]",IC50,[2],~1400 nM
"C#CC(N)Cc1cc(OC)c(Br)cc1OC.Cl (stereo not shown) [DDH-4C-B, 1-(4-Bromo-2,5-dimethoxyphenyl)but-3-yn-2-amine hydrochloride]","5-HT2A receptor activation, result in words",human 5-HT2A receptor,fully activated
same,EC50,human 5-HT2A receptor; [4],40.7 nM
same,EC50,human 5-HT2A receptor; [5],40.7 nM
CCC(N)Cc1cc(OC)c(Br)cc1OC (stereo not shown) [4C-B],active dose range (mixed psychedelic-energizing),[3],50 to 80 mg
"C#CC(N)Cc1ccc2c(c1)OCO2 (stereo not shown) [DDH-BDB, 1-(1,3-Benzodioxol-5-yl)but-3-yn-2-amine hydrochloride]",IC50,[1],> 10 µM
1-(Indol-3-yl) but-3-en-2-amine hemifumarate [DH-α-ET],IC50,"[1]; read-out: IC50, inhibition of 5-HT uptake (SERT)",< 1 µM
same,"IC50, inhibition of 5-HT uptake (SERT)",[1],sub-micromolar
same,"efficacy at the 5-HT2A receptor, percentage of the maximal 5-HT response",human 5-HT2A receptor; at 10 μM,~50%
"C#CC(Cc1ccc2c(c1)OCO2)NC (stereo not shown) [DDH-MBDB, N-Methyl-1-(1,3-benzodioxol-5-yl)but-3-yn-2-amine hydrochloride]",IC50,[1],> 10 µM
"C=C(c1ccc2c(c1)OCO2)C(C)NC.Cl (stereo not shown) [BME-MDMA, 2-(1,3-Benzodioxol-5-yl)-3-(methylamino) butene hydrochloride]","5-HT2A receptor activation, result in words",human 5-HT2A receptor,weaker activation efficacy
"C=CC(Cc1ccc2c(c1)OCO2)NC.Cl (stereo not shown) [DH-MBDB, N-Methyl-1-(1,3-benzodioxol-5-yl) but-3-en-2-amine hydrochloride]",IC50,[1],1 to 10 µM
same,"5-HT2A receptor activation, result in words",human 5-HT2A receptor,weaker activation efficacy
"C=CC(N)Cc1cc(OC)c(Br)cc1OC.Cl (stereo not shown) [DH-4C-B, 1-(4-Bromo-2,5-dimethoxyphenyl)but-3-en-2-amine hydrochloride]",IC50,[1],> 10 µM
same,"5-HT2A receptor activation, result in words",human 5-HT2A receptor; hydrochloride,fully activated; also recorded: potent activity
same,EC50,human 5-HT2A receptor; [4],22.1 nM
same,EC50,human 5-HT2A receptor; [5],22.1 nM
